In publication PMC8095338 (Neuro-oncology Advances, 2021):
“And” between values parts separate entries of the source, which are not always exact repeats. Equal entries are not always repeated. Where two headings read alike, the source gives them in different places.

Experiments:
[1] = cited from earlier work
[2] = test system: DUSP6 and FOS; experiment: Transcript biomarkers of MEK inhibition in tissues (RT-PCR); format: in vivo, minipig; conditions: skin, sciatic nerve, optic nerve and cerebral cortex of all treated minipigs, 2 h after single oral 7.3 mg/kg
Experimental: (§1) WT (n = 8) and NF1 (n = 8) minipigs received a single human equivalent oral dose of 450 mg (7.3 mg/kg). Untreated WT (n = 4) and NF1 (n = 4) minipigs were also enrolled as controls. All animals were euthanized 2 h after drug administration. Tissue samples were collected from each animal at the same approximate locations and divided for analysis.
For RNA profiling, tissues were homogenized using ceramic homogenizers (Agilent 5982–9311) and a Beadblaster 24 (Benchmark D2400) for 3 cycles of 30 s each. RNA was extracted from all tissues using the RNeasy Mini kit (QIAGEN 74104) and RNA concentration and quality was measured by NanoDrop (Thermo). Analysis of transcript biomarkers of MEK inhibition was performed using the Fluidigm platform by Reverse Transcription, preamplification with pooled primers and Real Time-PCR on the Juno and BioMark using the following pig TaqMan primers (DUSP6-Ss06941845_m1; FOS -Ss03390402_m1; normalized to the average of pig housekeeping genes (B2M/Ss03391154_m1; HPRT1/Ss03388274_m1; PPIA/Ss03394782_g1; RPL13A/Ss03376908_u1; UBC/Ss03374343_g1, TFRC/Ss03391240_m1). Data were then normalized to the average of the control untreated group from matching WT or NF1 background (Log2 fold change, -ddCt).

[3] = test system: ERK phosphorylation (p-ERK) in PBMCs; experiment: Blood PD: p-ERK in ex vivo PMA-stimulated PBMCs (capillary western); set-up: species or system minipig; conditions: Sus scrofa, PBMC, all minipigs (WT and NF1), 2 to 5 h after single oral 7.3 mg/kg
Experimental: WT (n = 8) and NF1 (n = 8) minipigs received a single human equivalent oral dose of 450 mg (7.3 mg/kg).
PD analysis in blood was performed as described in a previous study, with some modifications.[13] […] Samples were stimulated with phorbol 12-myristate 13-acetate (PMA) (200 nM) or phosphate-buffered saline for 10 min at 37°C within 1 h of being drawn. Red blood cells were removed using standard ammonium-chloride-potassium (ACK) lysis. Peripheral blood mononuclear cells (PBMCs) were snap-frozen as dry pellets and stored at −80°C until analysis. Protein lysates from PBMCs were prepared as described in a previous study.[13] For tissues, protein lysates were prepared by transferring ~[…] of snap frozen tissue to a 1.7-mL microfuge tube containing radioimmunoprecipitation lysis buffer with protease and phosphatase inhibitors. The samples were then homogenized using a rotor-stator homogenizer for 2–4 cycles of 20 s and centrifuged for 10 min at 4°C. Concentrations were measured using the Pierce BCA Protein assay kit (Thermo #23227), according to the manufacturer’s instructions. […] Peaks of the appropriate molecular weight (42/44 kilodaltons) were detected in the resulting electropherograms and chemiluminescent signal was quantified by calculating the area under the peaks. The relative intensity of p-ERK to total ERK was then calculated as a ratio (p-ERK/ERK). […]

[4] = Tissue PK, LC-MS/MS; format: in vivo, minipig; conditions: for concentration at 2 h: po
Experimental: as §1
Selumetinib PK studies were performed in plasma, skin, sciatic nerve, optic nerve, and brain. Plasma isolation was performed as described in a previous study.[13] […] Tissues were harvested and immediately transferred to cryovials and stored at −80°C until analysis.
Standard curves and controls were generated using corresponding untreated tissue. Skin tissue was treated with collagenase, and all organ tissues were homogenized. Liquid extraction with ethyl acetate was then performed, followed by analysis. […] The chromatographic separation was performed as described.[13] Mass spectrometric detection was performed using multiple reaction monitoring in positive ionization mode. […] Ion source gases 1 and 2 were set at 50 and 50 psi, respectively; the curtain gas was at 20 psi and the collision gas at 4 psi. […] Data acquisition was performed with analyst 1.4.1 software (MDS-SCIEX).

[5] = pediatric patients, 25 mg/m^2, plasma, median (range), ref 6
[6] = pediatric patients, 25 mg/m^2, plasma, median (range), ref 7
[7] = 2 h after single oral 7.3 mg/kg, P = .03
[8] = NF1 minipigs n = 8, 2 h after single oral 7.3 mg/kg
[9] = WT minipigs n = 8, 2 h after single oral 7.3 mg/kg
[10] = all 16 minipigs, 2 h after single oral 7.3 mg/kg
[11] = all 16 minipigs, 2 h after single oral 7.3 mg/kg, 7.3 mg/kg
[12] = individual NF1/F minipigs, 2 h after single oral 7.3 mg/kg, 7.3 mg/kg
[13] = individual NF1/M minipigs, 2 h after single oral 7.3 mg/kg, 7.3 mg/kg
[14] = individual WT/F minipigs, 2 h after single oral 7.3 mg/kg, 7.3 mg/kg
[15] = individual WT/M minipigs, 2 h after single oral 7.3 mg/kg, 7.3 mg/kg

Cn1cnc2c(F)c(Nc3ccc(Br)cc3Cl)c(C(=O)NOCCO)cc21 [selumetinib]
AUC0→∞ ([1]; human, in vivo, 75 mg): 4510 (19.2) hour × ng/mL
AUC0-∞ (systemic exposure) ([1]; human, in vivo): 4510 to 6335 ng·h/mL
AUC0-∞ (systemic exposure) ([1]; pediatric NF1 patients): 2520 to 3855 ng·h/mL
median maximum concentration (Cmax) in plasma ([1]; pediatric dose 25 mg/m^2): 886 ng/mL
AUC0→∞ [1, 5]: 2520 (2341–3280) hour × ng/mL
Cmax [1, 5]: 886 (790–1200) ng/mL
T1/2 [1, 5]: 6.5 (4.7–15.8) hours
AUC0→∞ [1, 6]: 3855 (1780–7250) hour × ng/mL
Cmax [1, 6]: 1400 (306–3570) ng/mL
Tmax [1, 6]: 1.4 (1.0–4.0) hours
DUSP6 transcript expression [2]: downregulated
FOS transcript expression [2]: downregulated
inhibition at 7.3 mg/kg ([3]; read-out: maximal inhibition of p-ERK in PBMCs): ≤ 90%
inhibition at 7.3 mg/kg ([3]; read-out: mean inhibition of p-ERK in PBMCs): 60%
mean selumetinib concentration in cerebral cortex, NF1 compared to WT minipigs [4, 7]: higher
mean selumetinib concentration in optic nerve, NF1 compared to WT minipigs [4, 7]: higher
Selumetinib concentration in tissues, Cerebral cortex, Range (NF1) [4, 8]: (20-105) ng/g
Selumetinib concentration in tissues, Optic nerve, Range (NF1) [4, 8]: (4-101) ng/g
Selumetinib concentration in tissues, Sciatic nerve, Range (NF1) [4, 8]: (5-36) ng/g
Selumetinib concentration in tissues, Skin, Range (NF1) [4, 8]: (14-155) ng/g
Selumetinib concentration in tissues, Cerebral cortex, Range (WT) [4, 9]: (15-76) ng/g
Selumetinib concentration in tissues, Optic nerve, Range (WT) [4, 9]: (7-46) ng/g
Selumetinib concentration in tissues, Sciatic nerve, Range (WT) [4, 9]: (6-51) ng/g
Selumetinib concentration in tissues, Skin, Range (WT) [4, 9]: (9-111) ng/g
Selumetinib concentration in tissues, Cerebral cortex, Range (All) [4, 10]: (15-105) ng/g
Selumetinib concentration in tissues, Optic nerve, Range (All) [4, 10]: (4-101) ng/g
Selumetinib concentration in tissues, Sciatic nerve, Range (All) [4, 10]: (5-51) ng/g
Selumetinib concentration in tissues, Skin, Range (All) [4, 10]: (9-155) ng/g
Selumetinib concentration in tissues, Cerebral cortex, Median (All) [4, 11]: 51 ng/g
Selumetinib concentration in tissues, Optic nerve, Median (All) [4, 11]: 36 ng/g
Selumetinib concentration in tissues, Sciatic nerve, Median (All) [4, 11]: 25 ng/g
Selumetinib concentration in tissues, Skin, Median (All) [4, 11]: 24 ng/g
Selumetinib concentration in tissues, Cerebral cortex [4, 12]: 63 ng/g and 105 ng/g and 101 ng/g and 20 ng/g
Selumetinib concentration in tissues, Optic nerve [4, 12]: 43 ng/g and 81 ng/g and 101 ng/g and 4 ng/g
Selumetinib concentration in tissues, Sciatic nerve [4, 12]: 20 ng/g and 10 ng/g and 17 ng/g and 5 ng/g
Selumetinib concentration in tissues, Skin [4, 12]: 36 ng/g and 155 ng/g and 14 ng/g and 17 ng/g
Selumetinib concentration in tissues, Cerebral cortex [4, 13]: 67 ng/g and 83 ng/g and 28 ng/g and 64 ng/g
Selumetinib concentration in tissues, Optic nerve [4, 13]: 59 ng/g and 34 ng/g
Selumetinib concentration in tissues, Sciatic nerve [4, 13]: 36 ng/g and 33 ng/g
Selumetinib concentration in tissues, Skin [4, 13]: 16 ng/g and 79 ng/g and 108 ng/g and 26 ng/g
Selumetinib concentration in tissues, Cerebral cortex [4, 14]: 26 ng/g and 42 ng/g and 76 ng/g and 47 ng/g
Selumetinib concentration in tissues, Optic nerve [4, 14]: 24 ng/g and 26 ng/g and 19 ng/g and 46 ng/g
Selumetinib concentration in tissues, Sciatic nerve [4, 14]: 46 ng/g and 38 ng/g and 36 ng/g and 16 ng/g
Selumetinib concentration in tissues, Skin [4, 14]: 22 ng/g and 111 ng/g and 81 ng/g and 12 ng/g
Selumetinib concentration in tissues, Cerebral cortex [4, 15]: 20 ng/g and 15 ng/g and 54 ng/g and 44 ng/g
Selumetinib concentration in tissues, Optic nerve [4, 15]: 35 ng/g and 7 ng/g and 32 ng/g and 36 ng/g
Selumetinib concentration in tissues, Sciatic nerve [4, 15]: 6 ng/g and 9 ng/g and 51 ng/g and 15 ng/g
Selumetinib concentration in tissues, Skin [4, 15]: 9 ng/g and 19 ng/g and 32 ng/g
concentration at 2 h ([4]; male, minipig, optic nerve, 7.3 mg/kg, Selumetinib concentration in tissues, Optic nerve, individual NF1/M minipigs, 2 h after single oral 7.3 mg/kg): 43 ng/g
concentration at 2 h ([4]; male, minipig, sciatic nerve, 7.3 mg/kg, Selumetinib concentration in tissues, Sciatic nerve, individual NF1/M minipigs, 2 h after single oral 7.3 mg/kg): 29 ng/g
Kp at 2 h ([4]; minipig, brain / plasma, minipigs, single oral 7.3 mg/kg, read-out: median brain–plasma ratio): 0.1
concentration at 2 h ([4]; minipig, cerebral cortex, 7.3 mg/kg, Selumetinib concentration in tissues, Cerebral cortex, Median (All), all 16 minipigs, 2 h after single oral 7.3 mg/kg): 66 ng/g
concentration at 2 h ([4]; minipig, cerebral cortex, 7.3 mg/kg, Selumetinib concentration in tissues, Cerebral cortex, Median (NF1), NF1 minipigs n = 8, 2 h after single oral 7.3 mg/kg): 66 ng/g
concentration at 2 h ([4]; minipig, cerebral cortex, 7.3 mg/kg, Selumetinib concentration in tissues, Cerebral cortex, Median (WT), WT minipigs n = 8, 2 h after single oral 7.3 mg/kg): 43 ng/g
concentration at 2 h ([4]; minipig, optic nerve, 7.3 mg/kg, Selumetinib concentration in tissues, Optic nerve, Median (All), all 16 minipigs, 2 h after single oral 7.3 mg/kg): 43 ng/g
concentration at 2 h ([4]; minipig, optic nerve, 7.3 mg/kg, Selumetinib concentration in tissues, Optic nerve, Median (NF1), NF1 minipigs n = 8, 2 h after single oral 7.3 mg/kg): 43 ng/g
concentration at 2 h ([4]; minipig, optic nerve, 7.3 mg/kg, Selumetinib concentration in tissues, Optic nerve, Median (WT), WT minipigs n = 8, 2 h after single oral 7.3 mg/kg): 29 ng/g
concentration at 2 h ([4]; minipig, 7.3 mg/kg, selumetinib concentration, range over all tissues, cerebral cortex, optic nerve, sciatic nerve, skin, all minipigs, 2 h after single oral 7.3 mg/kg): 4 to 155 ng/g
concentration at 2 h ([4]; minipig, sciatic nerve, 7.3 mg/kg, Selumetinib concentration in tissues, Sciatic nerve, Median (All), all 16 minipigs, 2 h after single oral 7.3 mg/kg): 23 ng/g
concentration at 2 h ([4]; minipig, sciatic nerve, 7.3 mg/kg, Selumetinib concentration in tissues, Sciatic nerve, Median (NF1), NF1 minipigs n = 8, 2 h after single oral 7.3 mg/kg): 25 ng/g
concentration at 2 h ([4]; minipig, sciatic nerve, 7.3 mg/kg, Selumetinib concentration in tissues, Sciatic nerve, Median (WT), WT minipigs n = 8, 2 h after single oral 7.3 mg/kg): 26 ng/g
concentration at 2 h ([4]; minipig, skin, 7.3 mg/kg, Selumetinib concentration in tissues, Skin, Median (All), all 16 minipigs, 2 h after single oral 7.3 mg/kg): 34 ng/g
concentration at 2 h ([4]; minipig, skin, 7.3 mg/kg, Selumetinib concentration in tissues, Skin, Median (NF1), NF1 minipigs n = 8, 2 h after single oral 7.3 mg/kg): 56 ng/g
concentration at 2 h ([4]; minipig, skin, 7.3 mg/kg, Selumetinib concentration in tissues, Skin, Median (WT), WT minipigs n = 8, 2 h after single oral 7.3 mg/kg): 21 ng/g
